Laboratory results published in US20050215548A1 (Cyclacel Limited, priority 2002, published 2005).

Molecular target: T1, HDM2 (Homo sapiens, UniProt Q00987)
T1 construct: Recombinant HDM2 (1.5 μg per well) in TBS-BSA buffer
Assay: Fluorescence polarisation competitive HDM2 binding assay
Details: fluorescence polarisation format; Table 1; read-out: IC50 In vitro competitive HDM2 binding assay
Experimental: This was carried out using a 96-well microtiter plate (Costar) format. Recombinant HDM2 (1.5 μg per well) in TBS-BSA buffer (50 mM Tris pH 7.4, 150 mM NaCl, and 0.1% BSA) was incubated for 5 min at room temperature in the presence of serially diluted test compound (in TBS-BSA buffer with a final concentration of 5% DMSO). Fluorescently labelled p53-derived peptide (fluorescein-[…]NH2, 0.2 μM) was added to each well and the plate was incubated at room temperature for 45 min. The fluorescence polarisation (excitation 485 nm, emission 520 nm) of the peptide was measured. IC50 values were calculated from dose-response curves.
The fluorescence polarisation competitive HDM2 binding assay described in Example 3 was used. Furthermore, the anti-proliferative potency of the compounds against three human tumour cell lines with different genetic make-up was also determined. […] The cell lines used were as follows: AGS, gastric adenocarcinoma, wild-type p53; H1299, large cell lung carcinoma, p53 null, low HDM2; SJSA-1, primitive multipotential bone sarcoma, wild-type p53, overexpressed HDM2.

T1 sequence (Q00987 whole entry): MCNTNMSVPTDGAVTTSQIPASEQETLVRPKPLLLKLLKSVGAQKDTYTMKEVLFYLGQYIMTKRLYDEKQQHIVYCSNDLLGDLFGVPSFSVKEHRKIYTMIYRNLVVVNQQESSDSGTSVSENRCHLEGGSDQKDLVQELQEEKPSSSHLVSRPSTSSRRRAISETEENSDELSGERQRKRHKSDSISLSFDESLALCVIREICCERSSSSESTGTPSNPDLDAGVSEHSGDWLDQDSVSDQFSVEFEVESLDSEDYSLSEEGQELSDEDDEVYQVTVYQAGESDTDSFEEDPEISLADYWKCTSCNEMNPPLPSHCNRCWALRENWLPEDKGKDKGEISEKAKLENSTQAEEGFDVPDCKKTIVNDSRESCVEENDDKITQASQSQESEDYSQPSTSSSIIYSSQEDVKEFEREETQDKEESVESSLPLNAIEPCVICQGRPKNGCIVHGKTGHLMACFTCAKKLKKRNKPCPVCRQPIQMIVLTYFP

Structure (SMILES)	IC50 [µM]
O=[N+]([O-])c1cc(S(=O)(=O)Nc2cccc(C(F)(F)F)c2)sc1Cl [Compound 1, 5-Chloro-4-nitrothiophene-2-sulfonic acid (3-trifluoromethylphenyl)amide]	409 ± 84
O=S(=O)(Nc1cc(C(F)(F)F)cc(C(F)(F)F)c1)c1cc(Br)c(Br)s1 [Compound 8, 4,5-Dibromothiophene-2-sulfonic acid (3,5-bis-trifluoromethylphenyl)amide]	407
O=S(=O)(Nc1ccc(C(F)(F)F)cc1)c1ccc(Cl)s1 [Compound 9, 5-Chlorothiophene-2-sulfonic acid (4-trifluoromethylphenyl)amide]	102 ± 13
O=S(=O)(Nc1ccc(Cl)cc1)c1ccc(Cl)s1 [Compound 10, 5-Chlorothiophene-2-sulfonic acid (4-chlorophenyl)amide]	320
O=S(=O)(Nc1cc(C(F)(F)F)cc(C(F)(F)F)c1)c1ccc(Cl)s1 [Compound 11, 5-Chlorothiophene-2-sulfonic acid (3,5-bis-trifluoromethylphenyl)amide]	435 ± 76
CSc1ncc(-c2ccc(S(=O)(=O)Nc3cc(Cl)cc(Cl)c3)s2)cn1 [Compound 12, 5-(2-Methylsulfanyl-pyrimidin-5-yl)-thiophene-2-sulfonic acid (3,5-dichlorophenyl)-amide]	374 ± 12
O=S(=O)(Nc1ccc(C(F)(F)F)cc1)c1ccc(-c2ncco2)cc1 [Compound 13, 4-Oxazol-2-yl-N-(4-trifluoromethylphenyl)benzenesulfonamide]	494
O=S(=O)(Nc1cc(C(F)(F)F)cc(C(F)(F)F)c1)c1ccc(-c2ncco2)cc1 [Compound 14, N-(3,5-Bis-trifluoromethylphenyl)-4-oxazol-2-yl-benzenesulfonamide]	448 ± 55
O=S(=O)(Nc1ccc(C(F)(F)F)cc1)c1cc(Br)c(Cl)s1 [Compound 15, 4-Bromo-5-chlorothiophene-2-sulfonic acid (4-trifluoromethylphenyl)amide]	218 ± 15
O=S(=O)(Nc1ccc(Cl)cc1)c1ccc(Br)s1 [Compound 16, 5-Bromothiophene-2-sulfonic acid (4-chlorophenyl)amide]	290 ± 54
O=S(=O)(Nc1cc(Cl)cc(Cl)c1)c1ccc(Br)s1 [Compound 17, 5-Bromothiophene-2-sulfonic acid (3,5-dichlorophenyl)amide]	291
O=S(=O)(Nc1cc(C(F)(F)F)cc(C(F)(F)F)c1)c1ccc(Br)s1 [Compound 18, 5-Bromothiophene-2-sulfonic acid (3,5-bis-trifluoromethylphenyl)amide]	172 ± 21
O=[N+]([O-])c1cccc(S(=O)(=O)Nc2ccc(Cl)cc2)c1 [Compound 19, N-(4-Chlorophenyl)-3-nitrobenzenesulfonamide]	295 ± 45
O=[N+]([O-])c1cccc(S(=O)(=O)Nc2ccc(C(F)(F)F)cc2)c1 [Compound 20, 3-Nitro-N-(4-trifluoromethylphenyl)benzenesulfonamide]	482 ± 26
O=[N+]([O-])c1cccc(S(=O)(=O)Nc2cc(C(F)(F)F)cc(C(F)(F)F)c2)c1 [Compound 21, N-(3,5-Bis-trifluoromethylphenyl)-3-nitrobenzenesulfonamide]	209 ± 38
O=[N+]([O-])c1cccc(S(=O)(=O)Nc2ccc(Cl)cc2Cl)c1 [Compound 22, N-(2,4-Dichlorophenyl)-3-nitrobenzenesulfonamide]	441 ± 69
O=S(=O)(Nc1ccc(C(F)(F)F)cc1)c1ccc(S(=O)(=O)c2ccccc2)s1 [Compound 23, 5-Benzenesulfonylthiophene-2-sulfonic acid (4-trifluoromethylphenyl)-amide]	146 ± 5
O=S(=O)(Nc1ccc(Cl)cc1)c1ccc(S(=O)(=O)c2ccccc2)s1 [Compound 24, 5-Benzenesulfonylthiophene-2-sulfonic acid (4-chlorophenyl)amide]	243 ± 59
O=S(=O)(Nc1cc(Cl)cc(Cl)c1)c1ccc(S(=O)(=O)c2ccccc2)s1 [Compound 25, 5-Benzenesulfonylthiophene-2-sulfonic acid (3,5-dichlorophenyl)amide]	288 ± 39
O=S(=O)(Nc1ccc(Cl)c(Cl)c1)c1ccc(Cl)s1 [Compound 26, 5-Chlorothiophene-2-sulfonic acid (3,4-dichlorophenyl)amide]	295 ± 36
O=S(=O)(Nc1cccc(C(F)(F)F)c1)c1cc(Br)c(Br)s1 [Compound 27, 4,5-Dibromothiophene-2-sulfonic acid (3-trifluoromethylphenyl)amide]	199 ± 28

Structure (SMILES)	IC50 [µM]
O=S(=O)(Nc1ccc(Cl)c(Cl)c1)c1cc(Br)c(Br)s1 [Compound 28, 4,5-Dibromothiophene-2-sulfonic acid (3,4-dichlorophenyl)amide]	160 ± 31
O=[N+]([O-])c1cc(S(=O)(=O)Nc2cc(C(F)(F)F)cc(C(F)(F)F)c2)ccc1Cl [Compound 29, N-(3,5-Bis-trifluoromethylphenyl)-4-chloro-3-nitrobenzenesulfonamide]	129 ± 22
O=[N+]([O-])c1cc(S(=O)(=O)Nc2ccc(Cl)c(Cl)c2)ccc1Cl [Compound 30, 4-Chloro-N-(3,4-dichlorophenyl)-3-nitrobenzenesulfonamide]	427 ± 3
Cn1ncc(-c2ccc(S(=O)(=O)Nc3ccc(C(F)(F)F)cc3)s2)c1C(F)(F)F [Compound 31, 5-(1-Methyl-5-trifluoromethyl-1H-pyrazol-4-yl)-thiophene-2-sulfonic acid (4-trifluoromethylphenyl)-amide]	350 ± 10
O=S(=O)(Nc1ccc(F)cc1)c1cc(S(=O)(=O)Nc2ccc(F)cc2)c(Cl)s1 [Compound 32, 5-Chlorothiophene-2,4-disulfonic acid bis-[(4-fluorophenyl)-amide]]	408 ± 31
Cc1ccc(S(=O)(=O)Nc2ccc(C(F)(F)F)cc2)cc1[N+](=O)[O-] [Compound 34, 4-Methyl-3-nitro-N-(4-trifluoromethylphenyl)benzenesulfonamide]	295 ± 23
Cc1ccc(S(=O)(=O)Nc2ccc(C(F)(F)F)cc2)cc1N [Compound 36, 3-Amino-4-methyl-N-(4-trifluoromethyl-phenyl)benzenesulfonamide]	429
Cc1ccc(S(=O)(=O)Nc2ccc(Cl)cc2)cc1[N+](=O)[O-] [Compound 37, N-(4-Chlorophenyl)-4-methyl-3-nitrobenzenesulfonamide]	294 ± 52
CC(C)CN(c1ccc(Cl)cc1)S(=O)(=O)c1cc([N+](=O)[O-])c(Cl)s1 [Compound 58, 5-Chloro-4-nitro-thiophene-2-sulfonic acid (4-chloro-phenyl)-isobutyl-amide]	249 ± 30
O=[N+]([O-])c1cc(S(=O)(=O)Nc2nc3ccccc3[nH]2)sc1Cl [Compound 59, 5-Chloro-4-nitro-thiophene-2-sulfonic acid (1H-benzo-imidazol-2-yl)-amide]	40 ± 1
O=[N+]([O-])c1cc(S(=O)(=O)Nc2ccccc2)sc1Cl [Compound 62, 5-Chloro-4-nitro-thiophene-2-sulfonic acid phenylamide]	67 ± 1
O=S(=O)(Nc1ccc(Cl)cc1)c1cc(S(=O)(=O)Nc2ccc(Cl)cc2)c(Cl)s1 [Compound 70, 5-Chloro-thiophene-2,4-disulfonic acid bis-[(4-chloro-phenyl)-amide]]	135 ± 19
CCc1sc(S(=O)(=O)Nc2ccc(Cl)cc2)cc1[N+](=O)[O-] [Compound 71, 5-Ethyl-4-nitro-thiophene-2-sulfonic acid (4-chloro-phenyl)-amide]	237 ± 35
Cc1sc(S(=O)(=O)Nc2ccc(Cl)cc2)cc1S(=O)(=O)Nc1ccc(Cl)cc1 [Compound 74, 5-Methyl-thiophene-2,4-disulfonic acid bis-[(4-chloro-phenyl)-amide]]	123 ± 15
O=[N+]([O-])c1csc(S(=O)(=O)Nc2ccc(C(F)(F)F)cc2)c1 [Compound 76, 4-Nitro-thiophene-2-sulfonic acid (4-trifluoromethyl-phenyl)-amide]	366 ± 7
O=[N+]([O-])c1csc(S(=O)(=O)NCCc2c[nH]c3ccccc23)c1 [Compound 77, 4-Nitro-thiophene-2-sulfonic acid [2-(1H-indol-3-yl)-ethyl]-amide]	247 ± 61
Cn1nc(-c2ccc(S(=O)(=O)N(Cc3cccc(C(F)(F)F)c3)c3cc(C(F)(F)F)cc(C(F)(F)F)c3)s2)cc1C(F)(F)F [Compound 78, 5-(1-Methyl-5-tri-fluoromethyl-1H-pyrazol-3-yl)-thiophene-2-sulfonic acid (3,5-bis-tri-fluoromethyl-phenyl)-(3-trifluoro-methyl-benzyl)-amide]	315 ± 83
O=[N+]([O-])c1cc(S(=O)(=O)Nc2ccc(Cl)cc2)sc1N1CCOCC1 [Compound 79, 5-Morpholin-4-yl-4-nitro-thiophene-2-sulfonic acid (4-chloro-phenyl)-amide]	419 ± 31
COCCNc1sc(S(=O)(=O)Nc2ccc(Cl)cc2)cc1[N+](=O)[O-] [Compound 80, 5-(2-Methoxy-ethylamino)-4-nitro-thiophene-2-sulfonic acid (4-chloro-phenyl)-amide]	154 ± 27
O=S(=O)(Nc1cc(C(F)(F)F)cc(C(F)(F)F)c1)c1c(Cl)nc2sccn12 [Compound 84, 6-Chloro-imidazo[2,1-b]thiazole-5-sulfonic acid (3,5-bis-trifluoro-methyl-phenyl)-amide]	308 ± 17
O=S(=O)(Nc1ccc(Cl)cc1)c1ccc2c(c1)OCCO2 [Compound 85, 2,3-Dihydro-benzo[1,4]dioxine-6-sulfonic acid (4-chloro-phenyl)-amide]	432 ± 7
